Common to all, as to format: functional
For experiment [1], the system named is SF-268. The experiment in a line: Growth inhibition of human SF268 cells assessed as cell growth at 1 uM incubated for 48 hrs by sulforhodamine B assay relative to control. To be noted: SF-268, 48 h, read-out: Activity.
The test system of experiment [2] is SK-MEL-28. The experiment can be described thus: Growth inhibition of human SK-MEL-28 cells assessed as cell growth at 0.01 uM incubated for 48 hrs by sulforhodamine B assay relative to control. The settings on record: SK-MEL-28, 48 h, read-out: Activity.
In experiment [3] the test system is UACC-62. The experiment in a line: Growth inhibition of human UACC62 cells assessed as cell growth at 0.01 uM incubated for 48 hrs by sulforhodamine B assay relative to control. The settings on record: UACC-62, 48 h, read-out: Activity. A general note: In SRB staining, fixed cells bind dye roughly in proportion to their protein.
In experiment [4] the test system is SW-620. The experiment in a line: Growth inhibition of human SW620 cells assessed as cell growth at 10 uM incubated for 48 hrs by sulforhodamine B assay relative to control. The settings on record: SW-620, 48 h, read-out: Activity.
In experiment [5] the test system is A549. The experiment in a line: Growth inhibition of human A549/ATCC cells assessed as cell growth at 0.1 uM incubated for 48 hrs by sulforhodamine B assay relative to control. The settings on record: A549, 48 h, read-out: Activity.
Experiment [6] relates to OVCAR-4. The experiment can be described thus: Growth inhibition of human OVCAR4 cells assessed as cell growth at 100 uM incubated for 48 hrs by sulforhodamine B assay relative to control. To be noted: OVCAR-4, 48 h, read-out: Activity.
For experiment [7], the system named is SF-268. The experiment can be described thus: Growth inhibition of human SF268 cells assessed as cell growth at 0.01 uM incubated for 48 hrs by sulforhodamine B assay relative to control. The settings on record: SF-268, 48 h, read-out: Activity.
Experiment [8] relates to DU-145. The experiment in a line: Growth inhibition of human DU145 cells assessed as cell growth at 0.01 uM incubated for 48 hrs by sulforhodamine B assay relative to control. The settings on record: DU-145, 48 h, read-out: Activity.
Experiment [9] relates to NCI-H322M. The experiment in a line: Growth inhibition of human NCI-H322M cells assessed as cell growth at 10 uM incubated for 48 hrs by sulforhodamine B assay relative to control. The settings on record: read-out: Activity.
Experiment [10] relates to NCI/ADR-RES. The experiment in a line: Growth inhibition of human NCI/ADR-RES cells assessed as cell growth at 10 uM incubated for 48 hrs by sulforhodamine B assay relative to control. To be noted: read-out: Activity.
Experiment [11] concerns Malme-3M. The experiment can be described thus: Growth inhibition of human MALME-3M cells assessed as cell growth at 100 uM incubated for 48 hrs by sulforhodamine B assay relative to control. The settings on record: read-out: Activity.
The test system of experiment [12] is T47D. The experiment in a line: Growth inhibition of human T47D cells assessed as cell growth at 0.1 uM incubated for 48 hrs by sulforhodamine B assay relative to control. To be noted: read-out: Activity.
Experiment [13] relates to OVCAR-8. The experiment in a line: Growth inhibition of human OVCAR8 cells assessed as cell growth at 0.01 uM incubated for 48 hrs by sulforhodamine B assay relative to control. The settings on record: OVCAR-8, 48 h, read-out: Activity.
Experiment [14] has as its system OVCAR-4. The experiment can be described thus: Growth inhibition of human OVCAR4 cells assessed as cell growth at 1 uM incubated for 48 hrs by sulforhodamine B assay relative to control. To be noted: OVCAR-4, 48 h, read-out: Activity.
In experiment [15] the test system is OVCAR-4. The experiment can be described thus: Growth inhibition of human OVCAR4 cells assessed as cell growth at 0.1 uM incubated for 48 hrs by sulforhodamine B assay relative to control. The settings on record: OVCAR-4, 48 h, read-out: Activity.
Experiment [16] deals with OVCAR-3. The experiment can be described thus: Growth inhibition of human OVCAR3 cells assessed as cell growth at 0.01 uM incubated for 48 hrs by sulforhodamine B assay relative to control. To be noted: OVCAR-3, 48 h, read-out: Activity.
For experiment [17], the system named is Hs-578T. The experiment in a line: Growth inhibition of human Hs 578T cells assessed as cell growth at 0.1 uM incubated for 48 hrs by sulforhodamine B assay relative to control. The settings on record: read-out: Activity.
For experiment [18], the system named is A549. The experiment can be described thus: Growth inhibition of human A549/ATCC cells assessed as cell growth at 100 uM incubated for 48 hrs by sulforhodamine B assay relative to control. The settings on record: A549, 48 h, read-out: Activity.
Experiment [19] deals with ACHN. The experiment in a line: Growth inhibition of human ACHN cells assessed as cell growth at 100 uM incubated for 48 hrs by sulforhodamine B assay relative to control. The settings on record: read-out: Activity.
Experiment [20] concerns Malme-3M. The experiment in a line: Growth inhibition of human MALME-3M cells assessed as cell growth at 0.3 uM incubated for 48 hrs by sulforhodamine B assay relative to control. The settings on record: read-out: Activity.
Experiment [21] concerns HL-60(TB). The experiment in a line: Growth inhibition of human HL-60(TB) cells assessed as cell growth at 0.03 uM incubated for 48 hrs by sulforhodamine B assay relative to control. The settings on record: HL-60, 48 h, read-out: Activity.
Experiment [22] concerns T47D. The experiment can be described thus: Growth inhibition of human T47D cells assessed as cell growth at 3 uM incubated for 48 hrs by sulforhodamine B assay relative to control. The settings on record: read-out: Activity.
For experiment [23], the system named is NCI/ADR-RES. The experiment in a line: Growth inhibition of human NCI/ADR-RES cells assessed as cell growth at 0.03 uM incubated for 48 hrs by sulforhodamine B assay relative to control. The settings on record: read-out: Activity.
In experiment [24] the test system is UACC-257. The experiment in a line: Growth inhibition of human UACC257 cells assessed as cell growth at 0.03 uM incubated for 48 hrs by sulforhodamine B assay relative to control. The settings on record: UACC-257, 48 h, read-out: Activity.
The test system of experiment [25] is UACC-257. The experiment in a line: Growth inhibition of human UACC257 cells assessed as cell growth at 30 uM incubated for 48 hrs by sulforhodamine B assay relative to control. The settings on record: UACC-257, 48 h, read-out: Activity.
Experiment [26] deals with RXF 393. The experiment in a line: Growth inhibition of human RXF393 cells assessed as cell growth at 30 uM incubated for 48 hrs by sulforhodamine B assay relative to control. The settings on record: RXF 393, 48 h, read-out: Activity.
Experiment [27] deals with SK-OV-3. The experiment can be described thus: Growth inhibition of human SKOV3 cells assessed as cell growth at 3 uM incubated for 48 hrs by sulforhodamine B assay relative to control. The settings on record: SK-OV-3, 48 h, read-out: Activity.
In experiment [28] the test system is NCI-H460. The experiment can be described thus: Growth inhibition of human NCI-H460 cells assessed as cell growth at 0.3 uM incubated for 48 hrs by sulforhodamine B assay relative to control. The settings on record: NCI-H460, 48 h, read-out: Activity.
The subject of experiment [29] is SK-MEL-5. The experiment in a line: Growth inhibition of human SK-MEL-5 cells assessed as cell growth at 0.03 uM incubated for 48 hrs by sulforhodamine B assay relative to control. To be noted: SK-MEL-5, 48 h, read-out: Activity.
Experiment [30] has as its system MCF7. The experiment in a line: Growth inhibition of human MCF7 cells assessed as cell growth at 0.003 uM incubated for 48 hrs by sulforhodamine B assay relative to control. To be noted: MCF7, 48 h, read-out: Activity.
Experiment [31] deals with OVCAR-8. The experiment in a line: Growth inhibition of human OVCAR8 cells assessed as cell growth at 3 uM incubated for 48 hrs by sulforhodamine B assay relative to control. The settings on record: OVCAR-8, 48 h, read-out: Activity.
Experiment [32] deals with HOP-92. The experiment in a line: Growth inhibition of human HOP92 cells assessed as cell growth at 3 uM incubated for 48 hrs by sulforhodamine B assay relative to control. To be noted: HOP-92, 48 h, read-out: Activity.
Experiment [33] deals with RPMI-8226. The experiment can be described thus: Growth inhibition of human RPMI8226 cells assessed as cell growth at 0.03 uM incubated for 48 hrs by sulforhodamine B assay relative to control. The settings on record: RPMI-8226, 48 h, read-out: Activity.
The test system of experiment [34] is SF-268. The experiment in a line: Growth inhibition of human SF268 cells assessed as cell growth at 0.3 uM incubated for 48 hrs by sulforhodamine B assay relative to control. The settings on record: SF-268, 48 h, read-out: Activity.
Experiment [35] deals with SR. The experiment can be described thus: Growth inhibition of human SR cells assessed as cell growth at 30 uM incubated for 48 hrs by sulforhodamine B assay relative to control. The settings on record: read-out: Activity.

The text below walks through data of ChEMBL document CHEMBL3994622, “Design and synthesis of new RAF kinase-inhibiting antiproliferative quinoline derivatives. Part 2: Diarylurea derivatives” (Eur J Med Chem, 2017).

Turning to `COc1cc2cc(Oc3ccc(NC(=O)Nc4ccc(Cl)c(Cl)c4)cc3)c(C)nc2cc1OC`, the growth at 1 µM in [1] was 110%; in [14], 93%. In addition, the growth at 0.01 µM in experiment [2] was 101%; in experiment [3] it was 94%; in [7], 103%; in experiment [8], 109%; in [13] it was 101%; in experiment [16], 109%. Also, the growth at 10 µM in [4] stood at 16%; in experiment [9] it was 47%; in experiment [10] it was 14%. In addition, the growth at 0.1 µM in experiment [5] was 94%; in experiment [12], 103%; in [15] it was 87%; in [17], 99%. Also, the growth at 100 µM is -85% in [6], -99% in experiment [11], -100% in experiment [18] and -61% in experiment [19].
`COc1cc2cc(Oc3ccc(NC(=O)Nc4ccc(Cl)c(C(F)(F)F)c4)cc3)c(C)nc2cc1OC`: the growth at 0.3 µM in experiment [20] was found to be 110%; in experiment [28], 100%; in experiment [34], 100%. Moreover, the growth at 0.03 µM was found to be 97% in [21]; 98% in experiment [23]; 86% in [24]; 92% in experiment [29]; 98% in experiment [33]. Also, the growth at 3 µM in experiment [22] was 19%; in experiment [27] it was 17%; in experiment [31], 6%; in [32], -21%. The growth at 30 µM in experiment [25] is -60%; in experiment [26] it was -80%; in [35], -43%. For the same molecule, the growth at 0.003 µM in experiment [30] stood at 98%.
In the case of `COc1cc2cc(Oc3ccc(NC(=O)Nc4cc(C(F)(F)F)cc(C(F)(F)F)c4)cc3)c(C)nc2cc1OC`, the growth at 1 µM came to 79% in experiment [1] and 58% in [14]. The growth at 0.01 µM in experiment [2] was found to be 91%; in [3], 90%; in [7], 97%; in experiment [8], 103%; in experiment [13], 111%; in [16], 104%. Besides, the growth at 10 µM in experiment [4] was -26%; in [9] it was -85%; in [10], -54%. In addition, the growth at 0.1 µM is 99% in experiment [5], 95% in experiment [12], 83% in [15] and 109% in [17]. Besides, the growth at 100 µM in experiment [6] was -52%; in experiment [11], -74%; in [18], -85%; in experiment [19], -89%.
Turning to `Cc1nc2cc(O)c(O)cc2cc1Oc1ccc(NC(=O)Nc2ccc(Cl)c(Cl)c2)cc1`, the growth at 0.3 µM in experiment [20] turned out to be 81%; in [28], 99%; in [34] it was 107%. For the same molecule, the growth at 0.03 µM in experiment [21] was 106%; in experiment [23], 97%; in [24] it was 86%; in experiment [29], 101%; in experiment [33], 98%. Besides, the growth at 3 µM in experiment [22] is 100%; in experiment [27] it was 103%; in experiment [31], 66%; in experiment [32], 48%. In addition, the growth at 30 µM is -20% in experiment [25], 7% in experiment [26] and -20% in experiment [35]. Also, the growth at 0.003 µM in experiment [30] is 94%.
